From ChEMBL document CHEMBL3124775 (Bioorg Med Chem, 2014)
pKi: −log10 of the molar value.

Experiments:
Carbonic anhydrase 2 = Carbonic anhydrase 2 (Homo sapiens, UniProt P00918); assay: Inhibition of human carbonic anhydrase 2 by stopped-flow CO2 hydrase assay
Carbonic anhydrase 9 = Carbonic anhydrase 9 (Homo sapiens, UniProt Q16790)
Description: Inhibition of human carbonic anhydrase 9 by stopped-flow CO2 hydrase assay

Carbonic anhydrase 1 = Carbonic anhydrase 1 (Homo sapiens, UniProt P00915); assay: Inhibition of human carbonic anhydrase 1 by stopped-flow CO2 hydrase assay
Carbonic anhydrase 12 = Carbonic anhydrase 12 (Homo sapiens, UniProt O43570)
Carbonic anhydrase 12, sequence (O43570 whole entry): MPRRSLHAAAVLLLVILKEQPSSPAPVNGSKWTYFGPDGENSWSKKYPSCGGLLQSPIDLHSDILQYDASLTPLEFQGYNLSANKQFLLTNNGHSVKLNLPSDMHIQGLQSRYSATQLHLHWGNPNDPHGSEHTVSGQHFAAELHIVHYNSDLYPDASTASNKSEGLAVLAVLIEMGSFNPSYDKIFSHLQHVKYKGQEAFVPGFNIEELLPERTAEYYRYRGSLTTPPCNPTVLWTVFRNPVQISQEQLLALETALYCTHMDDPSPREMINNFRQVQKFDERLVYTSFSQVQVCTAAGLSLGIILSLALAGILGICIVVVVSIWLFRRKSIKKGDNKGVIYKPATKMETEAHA
Description: Inhibition of human carbonic anhydrase 12 by stopped-flow CO2 hydrase assay

Carbonic anhydrase 1, sequence (P00915 whole entry): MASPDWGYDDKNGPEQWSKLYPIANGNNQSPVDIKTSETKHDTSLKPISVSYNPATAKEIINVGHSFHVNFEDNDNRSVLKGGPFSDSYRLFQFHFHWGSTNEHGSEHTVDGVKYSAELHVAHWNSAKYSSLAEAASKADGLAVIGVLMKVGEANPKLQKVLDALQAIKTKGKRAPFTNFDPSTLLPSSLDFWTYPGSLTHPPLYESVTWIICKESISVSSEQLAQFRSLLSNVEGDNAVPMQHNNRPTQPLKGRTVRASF

| SMILES | pKi (Carbonic anhydrase 2) | pKi (Carbonic anhydrase 9) | pKi (Carbonic anhydrase 1) | pKi (Carbonic anhydrase 12) |
| --- | --- | --- | --- | --- |
| O=C1c2ccccc2S(=O)(=O)N1Cc1cccc(Br)c1 |  | 6.44 | < 4.30 | 7.68 |
| O=C1c2ccccc2S(=O)(=O)N1Cc1cccc(F)c1 |  | 6.42 | < 4.30 | 5.57 |
| O=C1c2ccccc2S(=O)(=O)N1Cc1ccccc1Br |  | < 4.30 | < 4.30 | 7.60 |
| O=C(O)CN1C(=O)c2ccccc2S1(=O)=O | < 4.30 | 6.51 | < 4.30 | 7.38 |
| O=S1(=O)N=C(OCc2cccc(Br)c2)c2ccccc21 | < 4.30 | < 4.30 | < 4.30 | < 4.30 |
| O=C1c2ccccc2S(=O)(=O)N1Cc1cccc2ccccc12 | < 4.30 | < 4.30 | < 4.30 | 5.60 |
| O=C(CN1C(=O)c2ccccc2S1(=O)=O)c1ccccc1 | < 4.30 | < 4.30 | < 4.30 | 5.75 |
| O=C1c2ccccc2S(=O)(=O)N1Cc1ccccc1F | < 4.30 | < 4.30 | < 4.30 | 5.60 |
| O=C1c2ccccc2S(=O)(=O)N1Cc1cc(-c2ccc([N+](=O)[O-])cc2)no1 | < 4.30 | 6.51 | < 4.30 |  |
| O=C1c2ccccc2C(=O)N1CN1C(=O)c2ccccc2S1(=O)=O | < 4.30 | < 4.30 | < 4.30 | 4.87 |
| O=C1c2ccccc2S(=O)(=O)N1Cc1ccc(Cl)c(Cl)c1 | < 4.30 | 6.41 | < 4.30 | 5.56 |
| O=C1c2ccccc2S(=O)(=O)N1Cc1cccc([N+](=O)[O-])c1 |  |  | < 4.30 | 7.61 |
| O=C(CN1C(=O)c2ccccc2S1(=O)=O)c1cccc([N+](=O)[O-])c1 | < 4.30 | < 4.30 | < 4.30 | 5.70 |
| O=[N+]([O-])c1ccccc1CNS(=O)(=O)c1ccccc1CO | < 4.30 | < 4.30 | < 4.30 | 6.60 |
| O=C1c2ccccc2S(=O)(=O)N1Cc1ccccc1[N+](=O)[O-] |  | 7.04 | < 4.30 | 7.55 |
| N#CCCCN1C(=O)c2ccccc2S1(=O)=O |  | 6.54 | < 4.30 | < 4.30 |
| O=C(CN1C(=O)c2ccccc2S1(=O)=O)c1ccccc1[N+](=O)[O-] | < 4.30 | < 4.30 | < 4.30 | 6.01 |
| O=C1c2ccccc2S(=O)(=O)N1Cc1c(F)cccc1F |  | < 4.30 | < 4.30 | 5.88 |
| CCOC(=O)CN1C(=O)c2ccccc2S1(=O)=O |  | 6.48 | < 4.30 | 7.12 |

The remaining molecules from weak to strong by pKi (Carbonic anhydrase 9), led by results:

| pKi (Carbonic anhydrase 2) | pKi (Carbonic anhydrase 9) | pKi (Carbonic anhydrase 1) | pKi (Carbonic anhydrase 12) | SMILES |
| --- | --- | --- | --- | --- |
| < 4.30 | 6.54 | < 4.30 | 6.15 | N#CCN1C(=O)c2ccccc2S1(=O)=O |
|  | 6.57 | < 4.30 | 6.62 | C/C(CN1C(=O)c2ccccc2S1(=O)=O)=N\O (mixture of isomers) |
|  | 6.62 | < 4.30 | 6.82 | N#Cc1ccc(CN2C(=O)c3ccccc3S2(=O)=O)cc1 |
| 5.74 | 6.64 | < 4.30 | 5.54 | O=C1c2ccccc2S(=O)(=O)N1CC(O)COc1ccc(Cl)cc1 (stereo unspecified) |
|  | 6.68 | < 4.30 | 6.24 | C#CCN1C(=O)c2ccccc2S1(=O)=O |
| 7.42 | 6.70 | < 4.30 | 7.55 | CNC(=O)CN1C(=O)c2ccccc2S1(=O)=O |
|  | 6.82 | < 4.30 | 6.36 | CC(=O)CN1C(=O)c2ccccc2S1(=O)=O |
|  | 6.85 | < 4.30 | 7.03 | C=CCN1C(=O)c2ccccc2S1(=O)=O |
|  | 7.01 | < 4.30 | 6.68 | C/C=C/CN1C(=O)c2ccccc2S1(=O)=O |
